{"source": "patent US20250228823A1", "about": "“PHARMACEUTICAL COMPOSITIONS COMPRISING (3-(1-(1H-IMIDAZOL-4-YL)ETHYL)-2-METHYLPHENYL)METHANOL” (Allergan, Inc., priority 2010, published 2025)", "key": {"[1]": {"tested_on": "Normotensive male Dutch-Belted rabbits (IOP)", "details": "for IOP effect in the contralateral eye: single topical drop onto right eye, untreated eye", "description": "The experimental animals used, were Normotensive male Dutch-Belted rabbits (Myrtle's Rabbitry) over 6 months in age (n=4/compound/dose screened). A single drop (50 μl) of the drug formulation, was administered topically by pipette onto the right eye (treated eye) at approximately 0700 hours. IOP of the rabbits (treated and untreated eyes) was measured 0 hours before and at 0.5, 1, 2, 3, 4, 6 and 8 hours after topical eyedrop administration. IOP at the time of eyedrop administration (0 hours) was used as a baseline value. Prior to the tonometric measurements, 0.05% proparacaine (50 μl) was administered to each eye. Tonometric IOP measurements were obtained with a Mentor Pneumontonmeter. Additionally, all studies were masked. At least 1 week of wash-out time was allowed for each rabbit between dosings. All animals were examined for sedation, ocular irritation, and changes in pupil diameter throughout the course of the experiments."}, "bovine a1A receptor": {"target": "T1, bovine a1A receptor (Bos taurus, UniProt P18130)", "T1 sequence (P18130 1-466)": "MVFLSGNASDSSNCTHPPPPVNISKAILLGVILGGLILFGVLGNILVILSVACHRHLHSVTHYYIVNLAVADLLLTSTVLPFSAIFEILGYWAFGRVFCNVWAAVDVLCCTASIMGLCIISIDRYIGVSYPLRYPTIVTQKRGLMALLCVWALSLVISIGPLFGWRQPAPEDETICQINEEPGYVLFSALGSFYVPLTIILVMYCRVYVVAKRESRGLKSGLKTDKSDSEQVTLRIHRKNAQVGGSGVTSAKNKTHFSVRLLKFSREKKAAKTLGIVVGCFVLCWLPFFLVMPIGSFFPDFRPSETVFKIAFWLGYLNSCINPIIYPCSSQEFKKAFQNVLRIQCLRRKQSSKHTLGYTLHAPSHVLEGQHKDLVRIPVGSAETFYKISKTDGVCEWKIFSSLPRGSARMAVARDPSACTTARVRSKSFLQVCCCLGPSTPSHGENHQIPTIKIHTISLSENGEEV", "assay": "cell-based", "details": "for a1A efficacy: FLIPR agonist assay, HEK 293 cells, norepinephrine is the standard full agonist", "description": "(§1) HEK 293 cells stably expressing the bovine a1A receptor, human alpha 2A receptor and the chimeric G protein Gai5, are plated in poly-D-lysine coated 384-well plates at 20,000-40,000 cells per well and grown overnight in DMEM supplemented with 10% fetal bovine serum. For FLIPR (fluorometric image plate reader) evaluation, cells are washed twice with HBSS/HEPES Buffer (1× Hanks Buffered Salt Solution, 20 mM HEPES, pH 7.4) prior to the addition of Fluo-4-AM (4 uM Fluo-4-AM, 0.04% pluronic acid in HBSS/HEPES Buffer), a calcium-sensitive dye. Cells are loaded with dye for 40 minutes at 37° C., then washed 4 times with HBSS/HEPES Buffer. For both the agonist and antagonist assay, the test compounds are tested between 0.64 nM-10,000 nM. For an agonist assay, the reaction is initiated by the addition of the appropriate dilutions of compounds and the transient calcium signal captured. The peak height of the calcium curve is determined and utilized for calculation of EC50 and efficacy using ActivityBase. Norepinephrine is the standard full agonist used for evaluating alpha-1 and alpha-2 receptor activity."}, "human alpha 2A receptor": {"target": "T2, human alpha 2A receptor (Homo sapiens, UniProt P08913)", "T2 sequence (P08913 1-465)": "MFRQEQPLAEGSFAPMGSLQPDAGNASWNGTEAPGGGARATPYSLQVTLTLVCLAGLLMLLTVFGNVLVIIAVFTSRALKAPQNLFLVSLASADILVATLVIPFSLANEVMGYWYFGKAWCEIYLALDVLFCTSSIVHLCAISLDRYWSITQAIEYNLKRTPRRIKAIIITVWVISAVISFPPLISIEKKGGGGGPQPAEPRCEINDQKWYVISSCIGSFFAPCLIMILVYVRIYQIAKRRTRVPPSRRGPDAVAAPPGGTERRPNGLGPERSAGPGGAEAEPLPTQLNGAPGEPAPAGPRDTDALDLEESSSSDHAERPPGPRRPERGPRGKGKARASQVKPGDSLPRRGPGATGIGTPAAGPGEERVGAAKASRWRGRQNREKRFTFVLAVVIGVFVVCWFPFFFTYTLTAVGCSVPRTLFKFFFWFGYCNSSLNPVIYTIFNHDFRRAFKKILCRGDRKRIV", "details": "FLIPR agonist assay, HEK 293 cells with chimeric G protein; norepinephrine is the standard full agonist", "description": "as §1"}}, "data": [{"smiles": "Brc1c(NC2=NCCN2)ccc2nccnc12", "note": "[Brimonidine, reference compound]", "values": [{"measurement": "IOP effect at 6 hrs in the treated eye", "setting": "[1]; 0.15%, single topical drop, DB Rabbits, 6 hrs", "value": "minimal"}, {"measurement": "IOP effect in the contralateral eye", "setting": "[1]; DB Rabbits", "value": "strong contralateral effect"}, {"measurement": "EC50", "setting": "bovine a1A receptor", "value": "0.6 to 2.4", "unit": "µM"}, {"measurement": "a1A efficacy", "setting": "bovine a1A receptor", "value": 0.3}, {"measurement": "a2A efficacy", "setting": "human alpha 2A receptor", "value": 0.95}]}, {"smiles": "Cc1c(CO)cccc1[C@H](C)c1c[nH]cn1", "note": "[Compound 1, (S)-[3-(1-(1H-imidazol-4-yl)ethyl)-2-methylphenyl] methanol]", "values": [{"measurement": "duration of IOP lowering in the treated eye", "setting": "[1]; 0.15% concentration, single topical drop (50 μl), DB Rabbits", "value": "at least 6 hours"}, {"measurement": "IOP lowering efficacy compared with brimonidine", "setting": "[1]; FIG. 1", "value": "comparable efficacy to brimonidine"}, {"measurement": "intraocular pressure duration compared with brimonidine", "setting": "[1]; FIG. 1", "value": "longer intraocular pressure duration than brimonidine"}, {"measurement": "IOP effect in the contralateral eye", "setting": "[1]; DB Rabbits", "value": "very little effect"}, {"measurement": "EC50", "setting": "bovine a1A receptor", "value": "0.34 to 2.4", "unit": "µM"}, {"measurement": "a1A efficacy", "setting": "bovine a1A receptor", "value": 0.7}, {"measurement": "a2A efficacy", "setting": "human alpha 2A receptor", "value": 0.9}]}]}
